Target: Rho-associated protein kinase 2 (Homo sapiens, UniProt O75116)
Assay: In Vitro Assay: The effectiveness of compounds of the present invention as ROCK inhibitors can be determined in a 30 μL assay containing 20 mM HEPES, pH 7.5, 20 mM MgCl2, 0.015% Brij-35, 4 mM DTT, 5 μM ATP and 1.5 μM peptide substrate (FITC-AHA-[…]-OH). Compounds were dissolved in DMSO so that the final concentration of DMSO was <2%, and the reaction was initiated with Rho kinase variants. After incubation, the reaction was terminated by the addition of EDTA and the phosphorylated and non-phosphorylated peptides separated using a LABCHIP® 3000 Reader (Caliper Life Sciences).

Rho-associated protein kinase 2, sequence (O75116 whole entry, looked up, change not shown): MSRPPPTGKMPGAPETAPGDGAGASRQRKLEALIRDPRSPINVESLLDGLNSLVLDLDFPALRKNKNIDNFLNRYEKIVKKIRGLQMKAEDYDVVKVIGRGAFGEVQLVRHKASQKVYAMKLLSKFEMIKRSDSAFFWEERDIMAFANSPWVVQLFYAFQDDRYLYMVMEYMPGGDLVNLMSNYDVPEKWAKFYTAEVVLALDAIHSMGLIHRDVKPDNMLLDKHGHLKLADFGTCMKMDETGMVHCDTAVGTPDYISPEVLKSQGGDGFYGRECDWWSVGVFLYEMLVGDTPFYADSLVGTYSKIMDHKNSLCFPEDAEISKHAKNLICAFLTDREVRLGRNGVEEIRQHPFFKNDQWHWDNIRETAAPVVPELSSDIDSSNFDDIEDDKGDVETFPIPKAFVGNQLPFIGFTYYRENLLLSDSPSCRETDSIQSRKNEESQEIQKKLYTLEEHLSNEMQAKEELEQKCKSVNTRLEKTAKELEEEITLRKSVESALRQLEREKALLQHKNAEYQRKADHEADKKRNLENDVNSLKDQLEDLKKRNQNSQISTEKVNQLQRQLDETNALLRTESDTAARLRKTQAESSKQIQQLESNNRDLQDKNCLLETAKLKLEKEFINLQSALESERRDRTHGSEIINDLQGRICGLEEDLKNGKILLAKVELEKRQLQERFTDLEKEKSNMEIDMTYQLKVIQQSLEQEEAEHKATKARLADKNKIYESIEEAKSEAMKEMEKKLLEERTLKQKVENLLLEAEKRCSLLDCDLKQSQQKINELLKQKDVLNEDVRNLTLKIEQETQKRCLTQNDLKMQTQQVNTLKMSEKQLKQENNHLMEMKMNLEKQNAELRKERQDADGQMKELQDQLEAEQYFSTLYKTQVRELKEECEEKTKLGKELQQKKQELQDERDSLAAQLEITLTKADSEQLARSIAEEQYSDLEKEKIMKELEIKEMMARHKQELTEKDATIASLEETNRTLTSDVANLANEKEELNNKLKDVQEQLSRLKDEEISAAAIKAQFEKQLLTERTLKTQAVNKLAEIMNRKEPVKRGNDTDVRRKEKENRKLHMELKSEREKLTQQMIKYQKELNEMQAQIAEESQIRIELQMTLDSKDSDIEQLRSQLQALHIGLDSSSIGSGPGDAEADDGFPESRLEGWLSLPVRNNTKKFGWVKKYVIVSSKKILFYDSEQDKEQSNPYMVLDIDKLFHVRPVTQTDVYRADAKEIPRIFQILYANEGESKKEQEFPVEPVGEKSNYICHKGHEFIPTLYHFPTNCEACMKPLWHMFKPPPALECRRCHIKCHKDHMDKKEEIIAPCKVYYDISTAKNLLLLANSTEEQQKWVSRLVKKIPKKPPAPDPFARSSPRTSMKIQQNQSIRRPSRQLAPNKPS

IC50: 0.662 µM
SMILES: COc1cc(C(=O)NCC2=CCC3NC(=O)NC3=C2)ccc1-c1cn[nH]c1 (stereo unspecified)
